Data set [1] addresses T1, human amylin receptor (human calcitonin receptor + human RAMP3), BHK tk'ts 13 cells (Homo sapiens, UniProt O60896+P30988).
T1 construct: expressed in transfected cells; host or cells: BHK tk'ts 13
The data set is described as follows: Assay (Va) binding to the human amylin receptor (whole cell). Particulars: read-out: hAmylin-R binding IC50. How it is done:
The day before the assay the cells were Seeded into Poly-D-Lysin coated 384W Opaque White, BD BioCoat plates (10000 cells/well) and Incubated overnight at 37° C., 5% CO2, 95% humidity.

Data set [2] addresses T2, rat amylin receptor (rat calcitonin receptor + rat RAMP 3) (Rattus norvegicus, UniProt P32214+Q9JJ73).
T2 construct: expressed in transfected cells; host or cells: BHK tk'ts 13 (transient, FuGENE 6)
T2 sequence (P32214 25-479 isoform P32214-2 limits assumed): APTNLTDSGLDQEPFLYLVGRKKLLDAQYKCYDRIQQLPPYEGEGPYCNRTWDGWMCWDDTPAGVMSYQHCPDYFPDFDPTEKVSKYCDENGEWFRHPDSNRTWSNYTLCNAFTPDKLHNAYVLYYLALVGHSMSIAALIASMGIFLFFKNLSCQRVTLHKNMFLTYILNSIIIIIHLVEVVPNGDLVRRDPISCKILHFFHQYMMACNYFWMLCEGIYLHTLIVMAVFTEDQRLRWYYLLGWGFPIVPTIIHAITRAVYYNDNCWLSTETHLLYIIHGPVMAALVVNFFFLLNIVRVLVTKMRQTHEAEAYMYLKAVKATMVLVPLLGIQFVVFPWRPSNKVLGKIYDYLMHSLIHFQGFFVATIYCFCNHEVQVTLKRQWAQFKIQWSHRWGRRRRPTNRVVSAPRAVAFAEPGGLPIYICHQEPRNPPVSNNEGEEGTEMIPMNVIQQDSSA
T2 sequence (Q9JJ73 23-147 partner): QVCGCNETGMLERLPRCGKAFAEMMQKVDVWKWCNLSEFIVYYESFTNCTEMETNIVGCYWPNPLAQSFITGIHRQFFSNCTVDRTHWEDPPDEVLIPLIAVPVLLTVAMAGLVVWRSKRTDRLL
Kind of data set: Assay (VI) binding to the rat amylin receptor (membrane). Particulars: membranes; read-out: rAmylin-R binding IC50. How it is done:
The assay was performed as described above (Assay (V)—Determination of binding to the human amylin receptor) with the exception that we used membranes prepared from BHK tk'ts 13 cells that were transiently transfected with the rat calcitonin receptor rat RAMP 3 at an equimolar ratio […]. The BHK tk'ts 13 cells were transiently transfected with rat calcitonin receptor using FuGENE® 6 (Roche), according to the manufacturer's recommendations. Cells were grown in DMEM with 10% FBS and 1% Pen/Strep. Approximately 48 hours after transfection, the cells were harvested and membranes were prepared.

A short description of data set [3]: Assay (IV) determination of solubility. Format: physicochemical. Here is the method: Assay (IV)—Determination of Solubility
The mimylin peptide was dissolved in water at ˜500 nmol/ml and mixed 1:1 with a series of buffers (100 mM glycylglycine pH 3.0, 100 mM glycylglycine pH 4.0, 100 mM glycylglycine pH 5.0, 100 mM bistrispropane pH 6.0, 100 mM bistrispropane pH 6.5, 100 mM bistrispropane pH 7.0, 100 mM bistrispropane pH 7.5, 100 mM bistrispropane pH 8.0).

A further data set deals with T3, rat calcitonin receptor (Rattus norvegicus, UniProt P32214).
T3 construct: expressed in transfected cells; host or cells: BHK tk'ts 13 (transient, FuGENE 6)
T3 sequence (P32214 25-479 isoform P32214-2 limits assumed): T2 sequence (P32214 25-479 isoform P32214-2 limits assumed)
Kind of data set: Assay (VIII) binding to the rat calcitonin receptor. Particulars: membranes; read-out: rCT-R binding IC50. The method, boiled down:
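Affinity given as IC50 from a one-site competition fit of bound radioactivity, counted by scintillation after cold HBSS washes and NaOH/SDS lysis. Membranes came from BHK tk'ts 13 cells transiently expressing the rat receptor; other conditions followed the human calcitonin receptor protocol.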

Converted amounts (≈) assume the structure as drawn.

T1 sequence (O60896 24-148): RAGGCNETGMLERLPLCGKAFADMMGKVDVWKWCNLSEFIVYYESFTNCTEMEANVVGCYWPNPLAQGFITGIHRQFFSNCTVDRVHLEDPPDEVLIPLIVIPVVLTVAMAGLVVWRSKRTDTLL
T1 sequence (P30988 25-474): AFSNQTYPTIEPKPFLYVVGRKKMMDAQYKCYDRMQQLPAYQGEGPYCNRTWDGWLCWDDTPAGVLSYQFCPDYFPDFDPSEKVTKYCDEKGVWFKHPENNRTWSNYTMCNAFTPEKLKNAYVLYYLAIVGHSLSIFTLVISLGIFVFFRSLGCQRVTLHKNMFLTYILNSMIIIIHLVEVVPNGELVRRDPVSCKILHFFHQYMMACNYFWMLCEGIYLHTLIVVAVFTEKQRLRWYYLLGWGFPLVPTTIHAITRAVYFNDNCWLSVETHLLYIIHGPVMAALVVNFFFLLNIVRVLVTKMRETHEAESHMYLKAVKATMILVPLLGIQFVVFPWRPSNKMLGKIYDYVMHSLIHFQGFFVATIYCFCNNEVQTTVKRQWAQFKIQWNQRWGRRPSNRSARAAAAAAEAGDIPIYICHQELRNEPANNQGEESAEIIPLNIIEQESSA

As a reminder, the IC50 is the concentration needed to halve the response being measured. In general, solubility refers to the concentration that dissolves in the medium under given conditions. Higher therefore signals much dissolved substance. On to `CC(C)C[C@H](NC(=O)[C@H](CCCNC(=N)N)NC(=O)CNC(=O)[C@H](CC(C)C)NC(=O)[C@@H](NC(=O)[C@H](C)NC(=O)[C@@H](NC(=O)[C@H](CO)NC(=O)[C@H](CC(C)C)NC(=O)[C@H](CCC(=O)O)NC(=O)[C@H](CO)NC(=O)[C@H](C)NC(=O)CC[C@H](NC(=O)CCCCCCCCCCCCCCCCCCC(=O)O)C(=O)O)[C@@H](C)O)C(C)C)C(=O)N[C@@H](CO)C(=O)N[C@@H](CCC(N)=O)C(=O)N[C@@H](CCC(=O)O)C(=O)N[C@@H](CC(C)C)C(=O)N[C@@H](Cc1c[nH]cn1)C(=O)N[C@@H](CCC(=O)O)C(=O)N[C@@H](CC(C)C)C(=O)N[C@@H](CCC(N)=O)C(=O)N[C@H](C(=O)N[C@@H](Cc1ccc(O)cc1)C(=O)N1CCC[C@H]1C(=O)N[C@@H](CCCNC(=N)N)C(=O)N[C@H](C(=O)N[C@@H](CCC(=O)O)C(=O)N[C@H](C(=O)NCC(=O)N[C@@H](CO)C(=O)NCC(=O)N[C@H](C(=O)N[C@@H](Cc1ccc(O)cc1)C(N)=O)[C@@H](C)O)[C@@H](C)O)[C@@H](C)O)[C@@H](C)O` [compound 114, [N-terminal(C20 diacid-gGlu), des1, 9V, 15Q, 21Q, 23Y, 30S, 31G, 32T, 33Y]mimylin], for which the IC50 in data set [1] is 0.278 nM; in data set [2], 0.146 nM; at rat calcitonin receptor it was 0.021 nM. The solubility at 18 h in data set [3] (bistrispropane buffer, pH 6.5) is at least 200 µM; in data set [3] (bistrispropane buffer, pH 7.5), at least 200 µM; in data set [3] (bistrispropane buffer, pH 6.0) it was at least 200 µM; in data set [3] (bistrispropane buffer, pH 7.0), at least 200 µM; in data set [3] (bistrispropane buffer, pH 8.0) it was at least 200 µM; in data set [3] (glycylglycine buffer, pH 3.0) it was at least 200 µM. The solubility at 18 h in data set [3] (glycylglycine buffer, pH 4.0) came out at 65 µM (≈ 257 µg/mL); in data set [3] (glycylglycine buffer, pH 5.0), 7 µM (≈ 27.6 µg/mL).

Source of the values: US9593149B2, “Amylin and calcitonin receptor agonist” (Novo Nordisk A/S, priority 2014, dated 2017).
